In US20020165233A1, “Quinoxaline containing medicaments for post exposure prophylaxis of an HIV infection” (priority 1999, published 2002):

Legend:
[1] = tested on: RT-SHIV; assay: Quantitative virus isolation (QVI) from PBMC co-cultured with C8166 and viral RNA PCR of culture supernatant; type: in vivo, rhesus monkeys; set-up: key to viral RNA PCR of QVI culture supernatant: +=positive; −=negative
Method: (§1) Nine rhesus monkeys (male, 2 years old, 2-3 kg) were seronegative for SIV, Simian T cell Leukemia Virus (STLV), B virus and Type D retroviruses. 15 mg/kg body weight of COMPOUND A was subcutaneously administered into animals twice a day (12 h interval) for 28 d. Animals were divided into three groups. All animals were intravenously administered with 100 TCID50 of RT-SHIV The first group consisted of three animals treated with COMPOUND A from 8 h post exposure for 28 d. The second group of animals was treated with COMPOUND A from 24 h post exposure for 28 d. The third group (control) received the solvent that was used to dissolve COMPOUND A (PEG400:glycerol:water=[…]) from 8 h post exposure for 28 d.
(§2) Blood was collected from all the animals either just before or 2 h after the drug administration on 0, 3, 7, 10, 14, 21, 29 d post exposure in order to check the drug concentration, otherwise in intervals of 2 to 8 weeks. Biopsy of inguinal lymph nodes was conducted on 17 d or 18 d and 8 weeks post exposure in two animals per group. Cerebrospinal fluid (CSF) was collected from the animals just before biopsy.
Viral RNA was detected from 7 or 10 d post exposure up to 40 weeks post exposure in all plasma specimen from two animals (FIG. 2). […] While in two animals plasma viral RNA levels persisted around 10^5 copy/ml after a moderate reduction occurred at 4 weeks post exposure, viral RNA levels in one animal declined to about 10^3 copy/ml after 15 weeks post exposure (FIG. 2). The RT-SHIV infection in PIBMC was monitored by quantitative virus isolation (QVI) and quantitative PCR assay of proviral DNA. Serially diluted PBMC were co-cultured with C8166 to determine the minimal PBMC cell number to provoke a productive infection of C8166 cells. The number from the QVI test indicates infectious cells per one million PBMC. QVI results were consistent with plasma viral RNA levels. The numbers indicates the results of QVI. A + or − on the right indicates results of viral RNA PCR assay for the detection of virus in culture supernatant. +=positive, −=negative.

[2] = tested on: RT-SHIV; assay: Inhibitory activity on RT-SHIV replication in Herpes Saimiri Virus transformed monkey CD4+ T cells (P27 SIV gag antigen); type: cell-based, chimeric simian-human immunodeficiency virus (SHIV)
Method: The virus used in the experiments is a chimeric simian-human immunodeficiency virus (SHIV) that consists of SIVmac239 virus genome with replacement of reverse transcriptase gene (RT) by the corresponding HIV-1 RT gene (Ueberla, K. et al (1995), Medical Sciences 92, […]). RT-SHIV induced AIDS in experimentally infected rhesus monkeys (Ueberla, loc.cit.). Proviral RT-SHIV DNA was prepared by ligation of RT-SHIV5′ and 3′ half of SIVmac239. COS-1 virus stocks were prepared by DNA transfection of proviral DNA. Virus stocks for efficacy experiments were prepared by propagation of COS-1 virus stock in rhesus monkey peripheral blood lymphocytes (PBL). P27 antigen concentration of the virus stocks was determined with a commercial SIV gag antigen ELISA kit (Coulter). The 50% T cell infective dose (TCID50) of the stocks was determined with Herpes Simiri Virus transformed cynomolgus CD4^+ T cells (cyT/HSV).
Inhibitory Activity of COMPOUND A on RT-SHIV Replication in Herpes Saimiri Virus Transformed Monkey CD4^+ T Cells:
3×10^6 of CyT/HSV cells were infected with RT-SHIV stocks containing 10000 TCID50 for 2 h at 37° C., then washed and resuspended in the medium containing serially diluted COMPOUND A (0, 0.1, 0.3, 1, 3, 10, 30, 100, 300, 1000 nM). […] Virus growth was monitored by measuring of P27 SIV gag antigen in culture supernatant with a commercial kit.

[3] = tested on: RT-SHIV; assay: Plasma viral load (quantitative RNA PCR) after post-exposure prophylaxis; type: in vivo, rhesus monkeys
Method: as §1, §2
Determination of Plasma Viral Load:
Viral RNA was purified from plasma with a commercial viral RNA isolation kit (Boehringer Mannheim). Gag cDNA was PCR amplified with a commercial RNA PCR kit (Boehringer Mannheim) with the gag primers SG05i (5′-ACTGCTGATTCAAAATGCiMCC-3′), SG06i (5′-CTACTGGTCTiCTCCAAAGAGAGAATTG-3′) according to the protocol by Piatak et al. (Biotechniques 14, 70-81-1993) with modifications. Amplified gag DNA was separated by 2% agarose electrophoresis and cyber green stained DNA was analyzed with a fluorescence image analyzer (FLA2000, Fuji Photo Film). Quantitative determination of the viral RNA copy number was calculated using external standards.

[4] = tested on: RT-SHIV; assay: Anti-SIV ELISA (humoral response); type: in vivo, rhesus monkeys
Method: as §1
1:100 fold diluted plasma was assayed with ELISA plates coated with SIVmac239 virion lysate. Antibody titer was monitored by measuring the absorbance at 492 nm.

[5] = animal #1, 15 mg/kg s.c. b.i.d. 8h thru 28 d post exp, week 6 post exp.
[6] = animal #1, 15 mg/kg s.c. b.i.d. 8h thru 28 d post exp, week 8 post exp.
[7] = animal #1, 15 mg/kg s.c. b.i.d. 8h thru 28 d post exp, week 11 post exp.
[8] = animal #3, 15 mg/kg s.c. b.i.d. 24h thru 28 d post exp., week 6 post exp.
[9] = animal #3, 15 mg/kg s.c. b.i.d. 24h thru 28 d post exp., week 8 post exp.
[10] = animal #3, 15 mg/kg s.c. b.i.d. 24h thru 28 d post exp., week 11 post exp.
[11] = animal #4, 15 mg/kg s.c. b.i.d. 24h thru 28 d post exp., week 8 post exp.
[12] = animal #10, 15 mg/kg s.c. b.i.d. 8h thru 28 d post exp, week 6 post exp.
[13] = animal #10, 15 mg/kg s.c. b.i.d. 8h thru 28 d post exp, week 8 post exp.
[14] = animal #10, 15 mg/kg s.c. b.i.d. 8h thru 28 d post exp, week 11 post exp.
[15] = animal #11, 15 mg/kg s.c. b.i.d. 24h thru 28 d post exp., week 8 post exp.
[16] = animal #11, 15 mg/kg s.c. b.i.d. 24h thru 28 d post exp., week 11 post exp.

CC[C@H]1C(=O)Nc2ccc(F)cc2N1C(=O)OC(C)C [Compound A, (3S)-ethyl-6-fluoro-4-isopropyloxycarbonyl-3,4-dihydroquinoxalin-2(1H)-one]
viral RNA PCR of QVI culture supernatant ([1]; animal #1, 15 mg/kg s.c. b.i.d. 8h thru 28 d post exp, week 2 post exp.): −/− | Quantitative virus isolation (QVI) [1, 5]: 4 infectious cells per one million PBMC | viral RNA PCR of QVI culture supernatant [1, 5]: + | Quantitative virus isolation (QVI) [1, 6]: 16 infectious cells per one million PBMC | viral RNA PCR of QVI culture supernatant [1, 6]: + | Quantitative virus isolation (QVI) [1, 7]: 4 infectious cells per one million PBMC | viral RNA PCR of QVI culture supernatant [1, 7]: + | viral RNA PCR of QVI culture supernatant ([1]; animal #1, 15 mg/kg s.c. b.i.d. 8h thru 28 d post exp, week 15 post exp.): −/− | viral RNA PCR of QVI culture supernatant ([1]; animal #3, 15 mg/kg s.c. b.i.d. 24h thru 28 d post exp., week 2 post exp.): −/− | Quantitative virus isolation (QVI) [1, 8]: 16 infectious cells per one million PBMC | viral RNA PCR of QVI culture supernatant [1, 8]: + | Quantitative virus isolation (QVI) [1, 9]: 16 infectious cells per one million PBMC | viral RNA PCR of QVI culture supernatant [1, 9]: + | Quantitative virus isolation (QVI) [1, 10]: 16 infectious cells per one million PBMC | viral RNA PCR of QVI culture supernatant [1, 10]: + | viral RNA PCR of QVI culture supernatant ([1]; animal #3, 15 mg/kg s.c. b.i.d. 24h thru 28 d post exp., week 15 post exp.): −/− | viral RNA PCR of QVI culture supernatant ([1]; animal #4, 15 mg/kg s.c. b.i.d. 24h thru 28 d post exp., week 2 post exp.): −/− | viral RNA PCR of QVI culture supernatant ([1]; animal #4, 15 mg/kg s.c. b.i.d. 24h thru 28 d post exp., week 6 post exp.): −/− | Quantitative virus isolation (QVI) [1, 11]: 1 infectious cells per one million PBMC | viral RNA PCR of QVI culture supernatant [1, 11]: + | viral RNA PCR of QVI culture supernatant ([1]; animal #4, 15 mg/kg s.c. b.i.d. 24h thru 28 d post exp., week 11 post exp.): −/− | viral RNA PCR of QVI culture supernatant ([1]; animal #4, 15 mg/kg s.c. b.i.d. 24h thru 28 d post exp., week 15 post exp.): −/− | viral RNA PCR of QVI culture supernatant ([1]; animal #5, 15 mg/kg s.c. b.i.d. 8h thru 28 d post exp, week 2 post exp.): −/− | viral RNA PCR of QVI culture supernatant ([1]; animal #5, 15 mg/kg s.c. b.i.d. 8h thru 28 d post exp, week 6 post exp.): −/− | viral RNA PCR of QVI culture supernatant ([1]; animal #5, 15 mg/kg s.c. b.i.d. 8h thru 28 d post exp, week 8 post exp.): −/− | viral RNA PCR of QVI culture supernatant ([1]; animal #5, 15 mg/kg s.c. b.i.d. 8h thru 28 d post exp, week 11 post exp.): −/− | viral RNA PCR of QVI culture supernatant ([1]; animal #5, 15 mg/kg s.c. b.i.d. 8h thru 28 d post exp, week 15 post exp.): −/− | viral RNA PCR of QVI culture supernatant ([1]; animal #10, 15 mg/kg s.c. b.i.d. 8h thru 28 d post exp, week 2 post exp.): −/− | Quantitative virus isolation (QVI) [1, 12]: 1 infectious cells per one million PBMC | viral RNA PCR of QVI culture supernatant [1, 12]: + | Quantitative virus isolation (QVI) [1, 13]: 16 infectious cells per one million PBMC | viral RNA PCR of QVI culture supernatant [1, 13]: + | Quantitative virus isolation (QVI) [1, 14]: 4 infectious cells per one million PBMC | viral RNA PCR of QVI culture supernatant [1, 14]: + | viral RNA PCR of QVI culture supernatant ([1]; animal #10, 15 mg/kg s.c. b.i.d. 8h thru 28 d post exp, week 15 post exp.): −/− | viral RNA PCR of QVI culture supernatant ([1]; animal #11, 15 mg/kg s.c. b.i.d. 24h thru 28 d post exp., week 2 post exp.): −/− | viral RNA PCR of QVI culture supernatant ([1]; animal #11, 15 mg/kg s.c. b.i.d. 24h thru 28 d post exp., week 6 post exp.): −/− | Quantitative virus isolation (QVI) [1, 15]: 4 infectious cells per one million PBMC | viral RNA PCR of QVI culture supernatant [1, 15]: + | Quantitative virus isolation (QVI) [1, 16]: 4 infectious cells per one million PBMC | viral RNA PCR of QVI culture supernatant [1, 16]: + | viral RNA PCR of QVI culture supernatant ([1]; animal #11, 15 mg/kg s.c. b.i.d. 24h thru 28 d post exp., week 15 post exp.): −/− | suppression of RT-SHIV replication ([2]; 10 nM COMPOUND A, Herpes Saimiri Virus transformed monkey CD4+ cells): more than 95% | IC90 ([2]; Simian-Human immunodeficiency virus, CD4+ T, in Primates, read-out: IC90 value (RT-SHIV replication)): 8 nM | animals with a short active viral replication ([3]; 4 weeks after cessation of treatment): 50 % of the animals | viral replication (plasma viral RNA, proviral DNA, infectious cells in PBMC) ([3]; during the treatment and the following 3 weeks, all treated animals): inhibited at a level below the sensitivity of the assays | viral infection in animal #5 ([3]; plasma viral RNA, proviral DNA and QVI methods): no viral infection was observed | duration of immune-system assisted control following exposure ([3]; rhesus macaques): at least 40 weeks | viral replication (plasma viral RNA level) ([3]; subsequent to active replication around 10 weeks, up to 40 weeks post exposure, RNA PCR detection level): ≤ 1000 copy/ml | induction of humoral response against RT-SHIV ([4]; ELISA against SIV virion proteins, untreated sero-positive at 4 weeks): delayed induction of humoral response | treated animals sero-positive ([4]; at 11 weeks post exp.): Two of six | humoral response of animal #5 ([4]; late course): eventually lost its humoral response
